Measurements published in patent US9320809B2, “Nanoparticle comprising hydrophobic drug conjugated to cationic polymer and hydrophilic drug conjugated to anionic polymer” (University-Industry Foundation, Yonsei University, priority 2014, dated 2016).

Tested on: Bax, Bcl-2, Bcl-xL mRNA in HuCCT1 and SCK cells
Assay: Expression level of apoptosis-related genes (real-time PCR)
Format: cell-based
Conditions: same amount of drugs; for change of apoptosis gene expression according to the level of expression of CD44: HuCCT1 versus SCK
Experimental: The level of expression of an apoptosis gene of each material was compared and analyzed under the same condition as Experimental Example 4.
Specifically, 1×10^6 HuCCT1 and SCK cells were treated with GEM, PTX, GEM+PTX, HA-GEM, PLL-PTX, HA-GEM, and MDNCs for 4 hours based on the same amount of GEM and PTX. Then, the cells were incubated in a new medium for 24 hours, and thereby the cells were obtained. Total amount of RNA with respect to all the obtained cells was obtained with an RNeasy plus mini kit (QIAGEN Gmbh), and then a concentration of total RNA was obtained using a biophotometer. Thereafter, 2 μg of complementary DNA (cDNA) with respect to the total RNA was synthesized through a high capacity RNA-to-cDNA kit (Applied Biosystems; Thermo Fisher Scientific Inc.). Quantitative analysis of the synthesized cDNA was performed using a QuantiMix SYBR Kit (PKT, Korea) in a real-time PCR system (LightCycler 480 System, HNS Bio). The quantitative analysis was performed through a reacting solution (20 μl) including cDNA (1 μl), SYBR Green mixture (10 μl), each of forward primer (1 μl) and reverse primer (1 μl), and DEPC water (7 μl). The used primers were as follows: […]
PCR was performed at 95° C. for 5 minutes, and then genes were amplified for 45 cycles (10 seconds at 95° C., 10 seconds at 60° C., and 10 seconds at 72° C.). A relative amount of each mRNA was analyzed using a Ct method (2-ΔΔCt) based on GAPDH of each cell, from data obtained as described above.

Row | SMILES | change of apoptosis gene expression according to the level of expression of CD44 | effects on apoptosis gene expression compared with MDNCs
1 | Nc1ccn([C@@H]2O[C@H](CO)[C@@H](O)C2(F)F)c(=O)n1 [GEM, gemcitabine] | few changes | lower than those of the MDNCs
2 | CC(=O)O[C@H]1C(=O)[C@@]2(C)[C@H]([C@H](OC(=O)c3ccccc3)[C@]3(O)C[C@H](OC(=O)[C@H](O)[C@@H](NC(=O)c4ccccc4)c4ccccc4)C(C)=C1C3(C)C)[C@]1(OC(C)=O)CO[C@@H]1C[C@@H]2O [PTX, paclitaxel] | few changes | lower than those of the MDNCs
